Assay results reported in patent publication US4371463A, “Enzyme-resistant opiate pentapeptides” (priority 1977, dated 1983).
Square brackets hold non-standard residues; d marks the D form. Ends that are not written are not given here. Peptide text beside a SMILES is read from it.

Experiments:
[1] = Preincubation with rat brain membranes under physiological conditions at 37° C., then residual opiate receptor inhibitory activity; assay type: in vitro ADME
opiate receptors = assay: Opiate receptor affinity by inhibition of stereospecific 3H-naloxone binding to rat brain membranes; details: for IC50: rat brain membranes, 1 h at 0° C., 100 mM NaCl, 1.3 nM 3H-naloxone, read-out: Opiate Receptor Affinity (concentration causing 50% inhibition of stereospecific 3H-naloxone binding); for opiate receptor affinity, fold greater than the corresponding L-Ala2 isomer: vs L-Ala2-Met-enkephalin-amide
Description: Male rats weighing 180-200 g (Sprague-Dawley) were decapitated and each brain with the cerebellum removed was homogenized in 150 mls of ice-cold standard buffer (0.05 M Tris-HCl, pH 7.0 at 25° C.). After refrigerated centrifugation at 12,000×g, the membranes were reconstituted in the standard buffer. After recentrifugation, each brain was suspended in 10 mls of the standard buffer. Aliquots of the freshly prepared membrane preparation (100 μl) were incubated for one hour at 0° C. with various concentrations of the pentapeptide and 100 mM NaCl in a final volume of 0.5 ml with ^3 H-naloxane (New England Nuclear, 34 Ci/mmole) in a concentration of 1.3 nM (20,000 cpm). Incubation was begun with the addition of brain membranes, which were added last. After rapid filtration and washing with two 7 ml portions of ice-cold standard buffer, membrane-laden filters were transferred and counted at 40-45% efficiency at least six hours after shaking with detergent scintillation fluor (Aquasol, New England Nuclear). Control incubations containing levallorphan (100 nM) or dextrallorphan (100 nM) were included. Stereospecific binding (^3 H-naloxone bound in the presence of levallorphan subtracted from binding in the presence of dextrallorphan) represented 85-90% of the total bound naloxane in all experiments. Control values in all experiments ranged between 2000-2800 cpm. From a plot of the percent inhibition of stereospecific ^3 H-naloxane binding as a function of pentapeptide concentration, the opiate receptor affinity of the pentapeptide was determined as that concentration of pentapeptide, in μM, causing 50% inhibition of stereospecific ^3 H-naloxone binding. In this test, the lower the numerical value obtained, the higher is the opiate receptor affinity of the pentapeptide.

rats = assay: Analgesia after intracerebral microinjection in rats (tail-flick, flinch-jump, limb pinch); assay type: in vivo, rat
Description: Sprague-Dawley rats were stereotaxically implanted with chronic indwelling cannulae guides constructed from 23 gauge TW stainless steel tubing and fitted with stilettes of corresponding length. […] Testing was initiated approximately one week following surgery. The compounds being assessed for analgesic activity were dissolved in pyrogen-free water and microinjected at various dose levels in a volume 1 μl through 30 gauge injectors which protruded 2 mm past the guide cannulae tips.
Analgesia was assessed by the D'Amour and Smith "tail-flick" procedure, the "flinch-jump" test, and by subjectively evaluating an animal's reaction to pinches of the limbs with forceps. In the "tail-flick" test, a high intensity light was focused on a rat's tail which had been blackened with a felt-tip pen, and the time that it took an animal to remove its tail from this radiant heat was measured to the nearest 0.5 second. In the "flinch-jump" test, AC shock intensity at which an animal jumped and squealed was quantified 15 minutes after an injection (immediately after testing in the tail-flick test). Reactions to limb pinches were also noted at this time. Baseline measures were always taken approximately one hour prior to injection. All animals were tested at 1, 5, 15, 30, 60, 120, and 180 minutes after injection and then at one hour intervals until their response latencies had recovered to baseline levels.

rat = details: cited from earlier work; for duration of analgesia: injected directly into active brain sites
[2] = system: rat brain opiate receptors; details: cited from earlier work
[3] = 5-10 μg microinjected into rat brain

For `CSCC[C@H](NC(=O)[C@H](Cc1ccccc1)NC(=O)CNC(=O)[C@H](C)NC(=O)[C@@H](N)Cc1ccc(O)cc1)C(N)=O` [L-Ala^2 -Met-enkephalin-amide, reference compound], the “preincubation time after which complete loss of opiate receptor inhibitory activity resulted” value [1] was 60 min, the IC50 (opiate receptors) was 4 µM and the analgesia elicited (rats; 10 μg microinjected, rat) was “failed to elicit any significant analgesia”.
In the case of `CN1CC[C@]23c4c5ccc(O)c4O[C@H]2[C@@H](O)C=C[C@H]3[C@H]1C5` [morphine], the duration of analgesia (rat) is given as “several hours”.
For `CSCC[C@H](NC(=O)[C@H](Cc1ccccc1)NC(=O)CNC(=O)CNC(=O)[C@@H](N)Cc1ccc(O)cc1)C(=O)O` [Met-enkephalin, H-L-Tyr-Gly-Gly-L-Phe-L-Met-OH], the “affinity for rat brain opiate receptors relative to morphine” value [2] is listed as “about half”, the “preincubation time after which complete loss of opiate receptor inhibitory activity resulted” value [1] is listed as 20 min and the duration of analgesia (rat) is listed as “several minutes”. The “analgesic potency, fold weaker than morphine” value (rat; rat, in vivo) was “at least 50 fold”, the IC50 (opiate receptors) was 0.2 µM and the analgesia elicited (rats; 120 μg microinjected, rat) was “relatively low level of analgesia”. The “time after injection by which analgesia returned to pre-drug level” value (rats; 120 μg microinjected, rat) was at most 5 min.
For `CSCC[C@H](NC(=O)[C@H](Cc1ccccc1)NC(=O)CNC(=O)[C@H](NC(=O)[C@@H](N)Cc1ccc(O)cc1)C(C)C)C(N)=O` [D-Val^2 -Met-enkephalin-amide] (H-Y[dV]GFM-NH2), the IC50 (opiate receptors) was 4 µM and the “dose level needed to produce the same analgesic response as 5 μg of D-Ala2-Met-enkephalin-amide” value (rats; microinjected, rat) was 20 µg.
Molecule `CC(C)C[C@H](NC(=O)[C@H](Cc1ccccc1)NC(=O)CNC(=O)CNC(=O)[C@@H](N)Cc1ccc(O)cc1)C(=O)O` [Leu-enkephalin, H-L-Tyr-Gly-Gly-L-Phe-L-Leu-OH, reference compound] has an IC50 (opiate receptors) of 0.7 µM.
With `CSCC[C@H](NC(=O)[C@H](Cc1ccccc1)NC(=O)CNC(=O)[C@@H](C)NC(=O)[C@@H](N)Cc1ccc(O)cc1)C(=O)O` [D-Ala^2 -Met-enkephalin] the IC50 (opiate receptors) was 0.4 µM, the “opiate receptor affinity, fold greater than the corresponding L-Ala2 isomer” value (opiate receptors) was 10 fold and the “duration of action (analgesia)” value (rats; [3]) was “several hours”. For the same molecule, the “analgesia results compared with D-Ala2-Met-enkephalin-amide” value (rats; microinjected, rat) was “quite similar” and the “analgesic effects compared with comparable dose levels of morphine” value (rats; rat, in vivo) was “almost as potent and long-lasting”.
`CSCC[C@H](NC(=O)[C@H](Cc1ccccc1)NC(=O)CNC(=O)CN(C)C(=O)[C@@H](N)Cc1ccc(O)cc1)C(N)=O` [Sar^2 -Met-enkephalin-amide] gave an IC50 (opiate receptors) of 8 µM.
In the case of `CSCC[C@H](NC(=O)[C@H](Cc1ccccc1)NC(=O)CNC(=O)[C@@H](C)NC(=O)[C@@H](N)Cc1ccc(O)cc1)C(N)=O` [D-Ala^2 -Met-enkephalin-amide], the IC50 (opiate receptors) is reported as 0.4 µM, the “opiate receptor affinity, fold greater than the corresponding L-Ala2 isomer” value (opiate receptors) is reported as 10 fold and the “intensity of analgesia compared with 5 μg of morphine” value (rats; 10 μg microinjected, 1 and 2 hours after injection) is reported as “not as intense”. The “persistence of analgesia compared with 5 μg of morphine” value (rats; 10 μg microinjected, rat) was “about the same length of time”, the “analgesic effects compared with comparable dose levels of morphine” value (rats; [3]) was “almost as potent and long-lasting” and the “duration of action (analgesia)” value (rats; [3]) was “several hours”. The analgesia elicited (rats; 5-10 μg microinjected, periaqueductal gray, rat) was “quite effective in eliciting analgesia”, the “persistence of analgesia after injection” value (rats; 5-10 μg microinjected, rat) was “three” and the “effect of naloxone preinjection on analgesia” value (rats; naloxone 2 mg/kg i.p. 15 minutes before 10 μg microinjection) was “almost complete reversal of analgesia”.
In the case of “YPGFM-NH2 [L-Pro^2 -Met-enkephalin-amide]”, the IC50 (opiate receptors) is reported as 90 µM.
Work on `CSCC[C@H](NC(=O)[C@H](Cc1ccccc1)NC(=O)CNC(=O)[C@@H](Cc1ccccc1)NC(=O)[C@@H](N)Cc1ccc(O)cc1)C(N)=O` [D-Phe^2 -Met-enkephalin-amide] (H-Y[dF]GFM-NH2) yielded an IC50 (opiate receptors) of 2 µM.
